In ChEMBL document CHEMBL1806405, “Internalization of a C17α-alkynylestradiol-porphyrin conjugate into estrogen receptor positive MCF-7 breast cancer cells” (Bioorg Med Chem Lett, 2011) one finds Activity data, which are given here for two compounds.

Activity calls are given as the source filed them. The rule behind the calls is not given here.

The assay concerns the target T1, Estrogen receptor (Homo sapiens) (UniProt P03372).
T1 sequence (whole entry): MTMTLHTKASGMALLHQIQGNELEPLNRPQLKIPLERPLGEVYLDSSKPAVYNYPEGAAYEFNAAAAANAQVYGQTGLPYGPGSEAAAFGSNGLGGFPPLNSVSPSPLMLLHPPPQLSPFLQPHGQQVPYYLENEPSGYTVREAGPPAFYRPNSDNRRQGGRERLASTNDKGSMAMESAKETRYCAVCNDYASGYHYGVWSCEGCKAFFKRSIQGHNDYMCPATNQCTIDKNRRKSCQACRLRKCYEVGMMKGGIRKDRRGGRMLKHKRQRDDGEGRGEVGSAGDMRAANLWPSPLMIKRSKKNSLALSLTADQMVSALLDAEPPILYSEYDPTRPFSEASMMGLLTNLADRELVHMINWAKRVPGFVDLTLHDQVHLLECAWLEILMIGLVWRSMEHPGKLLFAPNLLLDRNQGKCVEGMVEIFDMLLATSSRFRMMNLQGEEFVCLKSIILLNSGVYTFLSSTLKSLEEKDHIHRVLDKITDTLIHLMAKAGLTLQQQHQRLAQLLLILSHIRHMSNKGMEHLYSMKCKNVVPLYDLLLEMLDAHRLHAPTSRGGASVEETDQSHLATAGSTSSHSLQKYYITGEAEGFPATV
The experiment in a line: Induction of estrogen receptor-mediated compound internalization in human MCF-7 cells at 10 umol by fluorescence microscopy. It counts as cell-based. The note with it: MCF7.

Turning to `C=CC1=C(C)c2cc3[nH]c(c4c5nc(cc6[nH]c(cc1n2)c(C)c6CC)C(C)=C5C(=O)C4)[C@@H](CCC(=O)O)[C@@H]3C`, the outcome was inactive.

Consider `C=CC1=C(C)c2cc3[nH]c(c4c5nc(cc6[nH]c(cc1n2)c(C)c6CC)C(C)=C5C(=O)C4)[C@@H](CCC(=O)OCCC#C[C@]1(O)CC[C@H]2[C@@H]4CCc5cc(O)ccc5[C@H]4CC[C@@]21C)[C@@H]3C`, for which the result was Active.
